The results in this text go back to patent publication US20240262815A1, “HETEROARYL DERIVATIVE, METHOD FOR PREPARING SAME, AND PHARMACEUTICAL COMPOSITION COMPRISING SAME AS ACTIVE INGREDIENT” (VORONOI INC., priority 2021, published 2024).

Where only a bound is given, the exact number is not on record here.

The subject of one assay is BT-474 cancer cells. The assay can be described thus: Inhibitory activity against proliferation of BT-474 cancer cells (CellTiter-Glo). The format is cell-based. To be noted: Homo sapiens, BT-474 ErbB2-overexpressing cancer cells, 120 hours after treatment. In outline: (§1)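 Cells seeded 48 h before dosing (SK-BR-3 in McCOY'S 5A + 10% FBS; BT-474 in RPMI-1640 + 20% FBS), then exposed 120 h to 12 concentrations, 0.2 nM-5 μM final. Viability by CellTiter-Glo luminescence; GI50 from growth rate vs control, triplicate runs.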

The next assay concerns SK-BR-3 cancer cells. The assay can be described thus: Inhibitory activity against proliferation of SK-BR-3 cancer cells (CellTiter-Glo). In kind it is cell-based. To be noted: Homo sapiens, SK-BR-3, 120 h, ErbB2-overexpressing SK-BR-3 cells, 120 hours after treatment. In outline:
as §1

Regarding `C=CC(=O)Nc1cc(Nc2cc(N3OCC[C@@H]3c3cccc(-c4cccc(F)c4)c3)ncn2)c(OC)cc1N1CCN(CCN(C)C)CC1` [Example 304, (R)-N-(2-(4-(2-(dimethylamino)-ethyl)piperazin-1-yl)-5-((6-(3-(3′-fluoro-[1,1′-biphen-yl]-3-yl)isoxazol-idin-2-yl)pyrim-idin-4-yl)amino)-4-methoxyphenyl)-acrylamide], the GI50 in the assay on BT-474 cancer cells and in the assay with SK-BR-3 cancer cells was under 50 nM each time.

As for `C=CC(=O)Nc1cc(Nc2cc(N3OCC[C@@H]3c3cccc(C#CC(C)(C)C)c3)ncn2)c(OC)cc1N(C)CCN(C)C` [Example 305, (R)-N-(2-((2-(dimethylamino)-ethyl)(methyl)-amino)-5-((6-(3-(3-(3,3-dimethyl-but-1-yn-1-yl)-phenyl)isoxazol-idin-2-yl)pyrim-idin-4-yl)amino)-4-methoxyphenyl)-acrylamide], the GI50 with BT-474 cancer cells and with SK-BR-3 cancer cells was under 50 nM throughout.

With `C=CC(=O)Nc1cc(Nc2cc(N3OCC[C@@H]3c3cccc(-c4cccc(F)c4)c3)ncn2)c(OC)cc1N1C[C@H]2C[C@@H]1CN2C` [Example 306, N-(5-((6-((R)-3-(3′-fluoro-[1,1′-biphenyl]-3-yl)-isoxazolidin-2-yl)-pyrimidin-4-yl)-amino)-4-meth-oxy-2-((1R,4R)-5-methyl-2,5-diaza-bicyclo[2.2.1]-heptan-2-yl)phen-yl)acrylamide], the 50% growth inhibitory concentration (GI50) with BT-474 cancer cells and in the assay on SK-BR-3 cancer cells was under 50 nM throughout.

As for `C=CC(=O)Nc1cc(Nc2cc(N3OCC[C@@H]3c3cccc(-c4cccc(F)c4)c3)ncn2)c(OC)cc1N1CCN(C)[C@@H](C)C1` [Example 307, N-(2-((S)-3,4-dimethylpiperazin-1-yl)-5-((6-((R)-3-(3′-fluoro-[1,1′-biphenyl]-3-yl)-isoxazolidin-2-yl)-pyrimidin-4-yl)-amino)-4-methoxy-phenyl)acrylamide], the GI50 in the assay with BT-474 cancer cells and in the assay on SK-BR-3 cancer cells was under 50 nM throughout.

`C=CC(=O)Nc1cc(Nc2cc(N3OCC[C@@H]3c3ccc(F)c(-c4cccc(F)c4)c3)ncn2)c(OC)cc1N1CCN(C)CC1` [Example 308, (R)-N-(5-((6-(3-(3′,6-difluoro-[1,1′-biphenyl]-3-yl)-isoxazolidin-2-yl)-pyrimidin-4-yl)-amino)-4-methoxy-2-(4-methylpiper-azin-1-yl)phenyl)-acrylamide]: the GI50 with BT-474 cancer cells and in the assay on SK-BR-3 cancer cells was under 50 nM in each case.

On to `C=CC(=O)Nc1cc(Nc2cc(N3OCC[C@@H]3c3cccc(C#CC(C)(C)O)c3)ncn2)c(OC)cc1N(C)CCN(C)C` [Example 309, (R)-N-(2-((2-(dimethylamino)-ethyl)(methyl)-amino)-5-((6-(3-(3-(3-hydroxy-3-methylbut-1-yn-1-yl)phenyl)isoxazol-idin-2-yl)pyrim-idin-4-yl)amino)-4-methoxyphen-yl)acrylamide], for which the 50% growth inhibitory concentration (GI50) with BT-474 cancer cells and in the assay on SK-BR-3 cancer cells was under 50 nM each time.

With `C=CC(=O)Nc1cc(Nc2cc(N3OCC[C@@H]3c3ccc(F)c(-c4cccc(F)c4)c3)ncn2)c(OC)cc1N(C)CCN(C)C` [Example 310, (R)-N-(5-((6-(3-(3′,6-difluoro-[1,1′-biphenyl]-3-yl)-isoxazolidin-2-yl)-pyrimidin-4-yl)-amino)-2-((2-(dimethylamino)-ethyl)(methyl)-amino)-4-methoxy-phenyl)acrylamide], the GI50 in the assay with BT-474 cancer cells and in the assay with SK-BR-3 cancer cells was under 50 nM in each case.

Regarding `C=CC(=O)Nc1cc(Nc2cc(N3OCC[C@@H]3c3cccc(C#Cc4cccc(F)c4)c3)ncn2)c(OC)cc1N1CCN(C)CC1` [Example 314, (R)-N-(5-((6-(3-(3-((3-fluorophen-yl)ethynyl)phenyl)-isoxazolidin-2-yl)-pyrimidin-4-yl)-amino)-4-methoxy-2-(4-methylpiper-azin-1-yl)phenyl)-acrylamide], the GI50 with BT-474 cancer cells and in the assay with SK-BR-3 cancer cells was 50 to 500 nM in each case.

Regarding `C=CC(=O)Nc1cc(Nc2cc(N3OCC[C@@H]3c3cccc(C#Cc4cccc(O)c4)c3)ncn2)c(OC)cc1N1CCN(C)CC1` [Example 315, (R)-N-(5-((6-(3-(3-((3-hydroxy-phenyl)ethynyl)-phenyl)isoxazol-idin-2-yl)pyrim-idin-4-yl)amino)-4-methoxy-2-(4-methylpiperazin-1-yl)phenyl)acryl-amide], the 50% growth inhibitory concentration (GI50) with BT-474 cancer cells was in the range of 50 to 500 nM; with SK-BR-3 cancer cells, 500 to 5000 nM.

As to `C=CC(=O)Nc1cc(Nc2cc(N3OCC[C@@H]3c3cccc(-c4cccc(F)c4)c3)ncn2)c(OC)cc1N1CCC(N2CCC2)CC1` [Example 317, (R)-N-(2-(4-(azeti-din-1-yl)piperidin-1-yl)-5-((6-(3-(3′-fluoro-[1,1′-biphen-yl]-3-yl)isoxazol-idin-2-yl)pyrim-idin-4-yl)amino)-4-methoxyphen-yl)acrylamide], the GI50 in the assay on BT-474 cancer cells and with SK-BR-3 cancer cells was under 50 nM in each case.

Take `C=CC(=O)Nc1cc(Nc2cc(N3OCC[C@@H]3c3cccc(-c4cccc(F)c4)c3)ncn2)c(OC)cc1N1CCN2CCCC2C1` (stereo partly drawn) [Example 318, N-(5-((6-((R)-3-(3′-fluoro-[1,1′-biphenyl]-3-yl)-isoxazolidin-2-yl)-pyrimidin-4-yl)-amino)-2-(hexa-hydropyrrolo[1,2-a]pyrazin-2(1H)-yl)-4-methoxy-phenyl)acrylamide]: the concentration for 50% growth inhibition (GI50) with BT-474 cancer cells was under 50 nM; in the assay with SK-BR-3 cancer cells it was 50 to 500 nM.

Turning to `C=CC(=O)Nc1cc(Nc2cc(N3OCC[C@@H]3c3cccc(-c4cccc(F)c4)c3)ncn2)c(OC)cc1N1CCN(C2CC2)[C@@H](C)C1` [Example 320, N-(2-((S)-4-cyclo-propyl-3-methyl-piperazin-1-yl)-5-((6-((R)-3-(3′-fluoro-[1,1′-biphen-yl]-3-yl)isoxazol-idin-2-yl)pyrim-idin-4-yl)amino)-4-methoxyphen-yl)acrylamide], the 50% growth inhibitory concentration (GI50) in the assay on BT-474 cancer cells and in the assay with SK-BR-3 cancer cells was under 50 nM each time.

In the case of `C=CC(=O)Nc1cc(Nc2cc(N3OCC[C@@H]3c3cccc(-c4cccc(F)c4)c3)ncn2)c(OC)cc1N1CC2(C1)CN(S(C)(=O)=O)C2` [Example 322, (R)-N-(5-((6-(3-(3′-fluoro-[1,1′-biphenyl]-3-yl)-isoxazolidin-2-yl)-pyrimidin-4-yl)-amino)-4-methoxy-2-(6-(methylsulfon-yl)-2,6-diazaspiro-[3.3]heptan-2-yl)-phenyl)acrylamide], the GI50 in the assay with BT-474 cancer cells and with SK-BR-3 cancer cells was under 50 nM each time.

Take `C=CC(=O)Nc1cc(Nc2cc(N3OCC[C@@H]3c3cccc(-c4cccc(F)c4)c3)ncn2)c(OC)cc1N1CC2(CN(C(=O)COC)C2)C1` [Example 323, (R)-N-(5-((6-(3-(3′-fluoro-[1,1′-biphenyl]-3-yl)-isoxazolidin-2-yl)-pyrimidin-4-yl)-amino)-4-methoxy-2-(6-(2-methoxy-acetyl)-2,6-diaza-spiro[3.3]heptan-2-yl)phenyl)acryl-amide]: the GI50 was under 50 nM in the assay with BT-474 cancer cells and 50 to 500 nM with SK-BR-3 cancer cells.

Regarding `C=CC(=O)Nc1cc(Nc2cc(N3OCC[C@@H]3c3cccc(-c4cccc(F)c4)c3)ncn2)c(OC)cc1N1CCC(N2CCN(S(C)(=O)=O)CC2)CC1` [Example 324, (R)-N-(5-((6-(3-(3′-fluoro-[1,1′-biphenyl]-3-yl)-isoxazolidin-2-yl)-pyrimidin-4-yl)-amino)-4-methoxy-2-(4-(4-(methyl-sulfonyl)piperazin-1-yl)piperidin-1-yl)-phenyl)acrylamide], the GI50 with BT-474 cancer cells and in the assay with SK-BR-3 cancer cells was under 50 nM throughout.

Regarding `C=CC(=O)Nc1cc(Nc2cc(N3OCCC3c3cccc(OCc4ccccn4)c3)ncn2)c(OC)cc1N(C)CCN(C)C` (stereo not shown) [Example compound 95, N-(2-((2-(dimethylamino)ethyl)(methyl)amino)-4-methoxy-5-((6-(3-(3-(pyridin-2-ylmethoxy)phenyl)isoxazolidin-2-yl)pyrimidin-4-yl)amino)phenyl)acrylamide], the 50% growth inhibitory concentration (GI50) in the assay on BT-474 cancer cells and in the assay on SK-BR-3 cancer cells was under 50 nM in each case.

As for `C=CC(=O)Nc1cc(Nc2cc(N3OCCC3c3cccc(OCc4ccccn4)c3)ncn2)c(OC)cc1N1CCN(C)CC1` (stereo not shown) [Example compound 96, N-(4-methoxy-2-(4-methylpiperazin-1-yl)-5-((6-(3-(3-(pyridin-2-ylmethoxy)phenyl)isoxazolidin-2-yl)pyrimidin-4-yl)amino)phenyl)acrylamide], the 50% growth inhibitory concentration (GI50) with BT-474 cancer cells and in the assay with SK-BR-3 cancer cells was under 50 nM each time.

Regarding `C=CC(=O)Nc1cc(Nc2cc(N3OCCC3c3cccc(OCc4ccccn4)c3)ncn2)c(OC)cc1N1CCC(N2CCN(C3CC3)CC2)CC1` (stereo not shown) [Example compound 98, N-(2-(4-(4-cyclopropylpiperazin-1-yl)piperidin-1-yl)-4-methoxy-5-((6-(3-(3-(pyridin-2-ylmethoxy)phenyl)isoxazolidin-2-yl)pyrimidin-4-yl)amino)phenyl)acrylamide], the 50% growth inhibitory concentration (GI50) in the assay with BT-474 cancer cells and in the assay on SK-BR-3 cancer cells was under 50 nM throughout.

On to `C=CC(=O)Nc1cc(Nc2cc(N3OCCC3c3ccc(Cl)c(OCc4cccc(F)c4)c3)ncn2)c(OC)cc1N1CCC(N2CCN(C3CC3)CC2)CC1` (stereo not shown) [Example compound 116, N-(5-((6-(3-(4-chloro-3-((3-fluorobenzyl)oxy)phenyl)isoxazolidin-2-yl)pyrimidin-4-yl)amino)-2-(4-(4-cyclopropylpiperazin-1-yl)piperidin-1-yl)-4-methoxyphenyl)acrylamide], for which the GI50 in the assay on BT-474 cancer cells is 50 to 500 nM; in the assay on SK-BR-3 cancer cells, under 50 nM.

In the case of `C=CC(=O)Nc1cc(Nc2cc(N3OCC[C@@H]3c3cccc(-c4cccs4)c3)ncn2)c(OC)cc1N1CCC(N2CCN(C3CC3)CC2)CC1` [Example compound 135, (R)-N-(2-(4-(4-cyclopropylpiperazin-1-yl)piperidin-1-yl)-4-methoxy-5-((6-(3-(3-(thiophen-2-yl)phenyl)isoxazolidin-2-yl)pyrimidin-4-yl)amino)phenyl)acrylamide], the GI50 with BT-474 cancer cells and with SK-BR-3 cancer cells was under 50 nM each time.
